Laboratory results as given in patent publication US20230077362A1 (CORTEVA AGRISCIENCE LLC, priority 2019, published 2023).
Where two headings read alike, the source gives them in different places.

Columns and labels:
[1] = tested on: Beet Armyworm (Spodoptera exigua) ("BAW"), second instar larvae; test: Bioassay on beet armyworm (BAW), 128-well diet tray assay; assay type: in vivo; details: for pest or weed control at 50 µg/cm2: Spodoptera exigua
How it was run: (§1)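 Sealed trays, 25° C., 14:10 light:dark, 5–7 d. Per-well % mortality recorded, mean of eight wells reported.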

[2] = tested on: Cabbage Looper (Trichoplusia ni) ("CL"), second instar larvae; test: Bioassay on cabbage looper (CL), 128-well diet tray assay; assay type: in vivo; details: for pest or weed control at 50 µg/cm2: Trichoplusia ni
How it was run: as §1

[3] = read-out: BAW (Biological Results, rating)
[4] = read-out: CL (Biological Results, rating)

Structure (SMILES) | pest or weed control at 50 µg/cm2 ([1]; read-out: BAW rating) [%] | pest or weed control at 50 µg/cm2 ([2]; read-out: CL rating) [%] | pest or weed control at 50 µg/cm2 [1, 3] [%] | pest or weed control at 50 µg/cm2 [2, 4] [%] | other results
Cc1ccc(COCC(F)(F)F)c(N2C(=O)CS/C2=N\C(=O)Nc2ccc(-n3cnc(-c4ccc(C(F)(F)F)cc4)n3)cc2F)c1 [Compound J698, (Z)-1-(2-fluoro-4-(3-(4-(trifluoromethyl)phenyl)-1H-1,2,4-triazol-1-yl)phenyl)-3-(3-(5-methyl-2-((2,2,2-trifluoroethoxy)methyl)phenyl)-4-oxothiazolidin-2-ylidene)urea] | 50 to 100 | 50 to 100 |  |  | 
N#Cc1ccc(OCCC(F)(F)F)c(N2C(=O)CS/C2=N\C(=O)Nc2ccc(-n3cnc(-c4ccc(OC(F)(F)F)cc4)n3)cc2)c1 [Compound J406, (Z)-1-(3-(5-Cyano-2-(3,3,3-trifluoropropoxy)phenyl)-4-oxothiazolidin-2-ylidene)-3-(4-(3-(4-(trifluoromethoxy)phenyl)-1H-1,2,4-triazol-1-yl)phenyl)urea] | 50 to 100 | 50 to 100 |  |  | 
CCOCc1ccc(C)cc1N1C(=O)CS/C1=N\C(=O)Nc1ccc(-c2ncn(-c3ccc(C)cc3)n2)cc1F [Compound J753, (Z)-1-(3-(2-(Ethoxymethyl)-5-methylphenyl)-4-oxothiazolidin-2-ylidene)-3-(2-fluoro-4-(1-(p-tolyl)-1H-1,2,4-triazol-3-yl)phenyl)urea] | 50 to 100 | 50 to 100 |  |  | 
COC(C)c1ccc(C)cc1N1C(=O)CS/C1=N\C(=O)Nc1ccc(-c2ncn(-c3ccc(OC(F)(F)F)cc3)n2)cc1Br (centres unmarked) [Compound J220, (Z)-1-(2-Bromo-4-(1-(4-(trifluoromethoxy)phenyl)-1H-1,2,4-triazol-3-yl)phenyl)-3-(3-(2-(1-methoxyethyl)-5-methylphenyl)-4-oxothiazolidin-2-ylidene)urea] |  |  | 50 to 100 | 50 to 100 | 
Cc1ccc(OCCC(F)(F)F)c(N2C(=O)CS/C2=N\C(=O)Nc2ccc(-n3cnc(-c4ccc(C(F)(F)F)cc4)n3)cc2F)c1 [Compound J702, (Z)-1-(2-Fluoro-4-(3-(4-(trifluoromethyl)phenyl)-1H-1,2,4-triazol-1-yl)phenyl)-3-(3-(5-methyl-2-(3,3,3-trifluoropropoxy)phenyl)-4-oxothiazolidin-2-ylidene)urea] | 50 to 100 | 50 to 100 |  |  | 
CC(C)c1ccc(N(C)C)cc1N1C(=O)CS/C1=N\C(=O)Nc1ccc(-c2ncn(-c3ccc(OCC#N)cc3)n2)cc1F [Compound J342, (Z)-1-(4-(1-(4-(Cyanomethoxy)phenyl)-1H-1,2,4-triazol-3-yl)-2-fluorophenyl)-3-(3-(5-(dimethylamino)-2-isopropylphenyl)-4-oxothiazolidin-2-ylidene)urea] |  |  | 50 to 100 | 50 to 100 | 
Cc1ccc(COCc2ccccc2)c(N2C(=O)CS/C2=N\C(=O)Nc2ccc(-c3ncn(-c4ccc(OC(F)(F)F)cc4)n3)cc2F)c1 [Compound J571, (Z)-1-(3-(2-((Benzyloxy)methyl)-5-methylphenyl)-4-oxothiazolidin-2-ylidene)-3-(2-fluoro-4-(1-(4-(trifluoromethoxy)phenyl)-1H-1,2,4-triazol-3-yl)phenyl)urea] | 50 to 100 | 50 to 100 |  |  | 
Cc1ccc(C(F)(F)F)c(N2C(=O)C(Cl)S/C2=N\C(=O)Nc2ccc(-c3ncn(-c4ccc(OC(F)(F)F)cc4)n3)cc2F)c1 (centres unmarked) [Compound J34, (Z)-1-(5-Chloro-3-(5-methyl-2-(trifluoromethyl)phenyl)-4-oxothiazolidin-2-ylidene)-3-(2-fluoro-4-(1-(4-(trifluoromethoxy)phenyl)-1H-1,2,4-triazol-3-yl)phenyl)urea] |  |  | 50 to 100 | 50 to 100 | 
Cc1ccc(OCCCC(F)(F)F)c(N2C(=O)CS/C2=N\C(=O)Nc2c(F)cc(-c3ncn(-c4ccc(OC(F)(F)F)cc4)n3)cc2F)c1 [Compound J80, (Z)-1-(2,6-Difluoro-4-(1-(4-(trifluoromethoxy)phenyl)-1H-1,2,4-triazol-3-yl)phenyl)-3-(3-(5-methyl-2-(4,4,4-trifluorobutoxy)phenyl)-4-oxothiazolidin-2-ylidene)urea] |  |  | 50 to 100 | 50 to 100 | 
Cc1ccc(OCCC(F)(F)F)c(N2C(=O)CS/C2=N\C(=O)Nc2ccc(-c3ncn(-c4ccc(C(F)(F)F)cn4)n3)cc2F)c1 [Compound J307, (Z)-1-(2-Fluoro-4-(1-(5-(trifluoromethyl)pyridin-2-yl)-1H-1,2,4-triazol-3-yl)phenyl)-3-(3-(5-methyl-2-(3,3,3-trifluoropropoxy)phenyl)-4-oxothiazolidin-2-ylidene)urea] |  |  | 50 to 100 | 50 to 100 | 
COc1ccc(CC(F)(F)F)c(N2C(=O)CS/C2=N\C(=O)NC(C)Cc2ccc(-c3ncn(-c4ccc(OC(F)(F)F)cc4)n3)cc2)c1 (centres unmarked) [Compound H15] |  |  | 50 to 100 | 50 to 100 | 
Cc1ccc(COCC(F)(F)F)c(N2C(=O)CS/C2=N\C(=O)Nc2ccc(-c3ncn(-c4ccc(OC(F)(F)F)cn4)n3)cc2C(F)(F)F)c1 [Compound J274, (Z)-1-(3-(5-Methyl-2-((2,2,2-trifluoroethoxy)methyl)phenyl)-4-oxothiazolidin-2-ylidene)-3-(4-(1-(5-(trifluoromethoxy)pyridin-2-yl)-1H-1,2,4-triazol-3-yl)-2-(trifluoromethyl)phenyl)urea] |  |  | 50 to 100 | 50 to 100 | 
COc1ccc(C(C)C)c(N2C(=O)CS/C2=N\C(=O)Nc2ccc(-c3ncn(-c4ccc(OC(F)(F)F)cc4)n3)cc2C)c1 [Compound J54, (Z)-1-(3-(2-Isopropyl-5-methoxyphenyl)-4-oxothiazolidin-2-ylidene)-3-(2-methyl-4-(1-(4-(trifluoromethoxy)phenyl)-1H-1,2,4-triazol-3-yl)phenyl)urea] |  |  | 50 to 100 | 50 to 100 | 
CCCN(CCC)c1ccc(C(C)C)c(N2C(=O)CS/C2=N\C(=O)Nc2ccc(-c3ncn(-c4ccc(OC(F)(F)F)cc4)n3)cc2F)c1 [Compound J108, (Z)-1-(3-(5-(Dipropylamino)-2-isopropylphenyl)-4-oxothiazolidin-2-ylidene)-3-(2-fluoro-4-(1-(4-(trifluoromethoxy)phenyl)-1H-1,2,4-triazol-3-yl)phenyl)urea] |  |  | 50 to 100 | 50 to 100 | 
Cc1cccc(N2C(=O)CS/C2=N\C(=O)Nc2ccc(-c3ncn(-c4cccc(OC(F)(F)F)c4)n3)cc2F)c1COCC(F)(F)F [Compound J706] |  |  |  |  | BAW rating ([1]; Table ABC, species BAW, C = not tested, D = no activity noticed): A (50-100); CL rating ([2]; Table ABC, species CL, C = not tested, D = no activity noticed): A (50-100)
Cc1ccc(OCC(F)(F)F)c(N2C(=O)CS/C2=N\C(=O)Nc2c(F)cc(-c3ncn(-c4ccc(OC(F)(F)F)cc4)n3)cc2F)c1 [Compound J79, (Z)-1-(2,6-Difluoro-4-(1-(4-(trifluoromethoxy)phenyl)-1H-1,2,4-triazol-3-yl)phenyl)-3-(3-(5-methyl-2-(2,2,2-trifluoroethoxy)phenyl)-4-oxothiazolidin-2-ylidene)urea] |  |  | 50 to 100 | 50 to 100 | 
CCOCc1ccc(C)cc1N1C(=O)CS/C1=N\C(=O)Nc1ccc(-c2ncn(-c3ccc(C(F)(F)F)cn3)n2)cc1F [Compound J299, (Z)-1-(3-(2-(Ethoxymethyl)-5-methylphenyl)-4-oxothiazolidin-2-ylidene)-3-(2-fluoro-4-(1-(5-(trifluoromethyl)pyridin-2-yl)-1H-1,2,4-triazol-3-yl)phenyl)urea] |  |  | 50 to 100 | 50 to 100 | 
O=C(/N=C1\SCC(=O)N1c1cc(F)ccc1COCC(F)(F)F)Nc1ccc(-n2cnc(-c3ccc(OC(F)(F)F)cc3)n2)cc1F [Compound J690, (Z)-1-(3-(5-Fluoro-2-((2,2,2-trifluoroethoxy)methyl)phenyl)-4-oxothiazolidin-2-ylidene)-3-(2-fluoro-4-(3-(4-(trifluoromethoxy)phenyl)-1H-1,2,4-triazol-1-yl)phenyl)urea] | 50 to 100 | 50 to 100 |  |  | 
COc1ccc(C(C)C)c(N2C(=O)CS/C2=N\C(=O)Nc2ccc(-c3ncn(-c4ccc(OC(F)(F)F)cn4)n3)cc2C(F)(F)F)c1 [Compound J277, (Z)-1-(3-(2-Isopropyl-5-methoxyphenyl)-4-oxothiazolidin-2-ylidene)-3-(4-(1-(5-(trifluoromethoxy)pyridin-2-yl)-1H-1,2,4-triazol-3-yl)-2-(trifluoromethyl)phenyl)urea] |  |  | 50 to 100 | 50 to 100 | 
COC(C)c1ccc(C)cc1N1C(=O)CS/C1=N\C(=O)Nc1ccc(-c2cn(-c3ccc(S(F)(F)(F)(F)F)cc3)cn2)cc1F (centres unmarked) [Compound J591, (Z)-1-(2-Fluoro-4-(1-(4-(pentafluoro-λ^6-sulfaneyl)phenyl)-1H-imidazol-4-yl)phenyl)-3-(3-(2-(1-methoxyethyl)-5-methylphenyl)-4-oxothiazolidin-2-ylidene)urea] | 50 to 100 | 50 to 100 |  |  | 
COC(C)c1ccc(C)cc1N1C(=O)CS/C1=N\C(=O)Nc1ccc(-c2ncn(-c3ccc(OC(F)(F)F)cc3)n2)cc1F (centres unmarked) [Compound J49, (Z)-1-(2-Fluoro-4-(1-(4-(trifluoromethoxy)phenyl)-1H-1,2,4-triazol-3-yl)phenyl)-3-(3-(2-(1-methoxyethyl)-5-methylphenyl)-4-oxothiazolidin-2-ylidene)urea] |  |  | 50 to 100 | 50 to 100 | 
Cc1ccc(OCCC(F)(F)F)c(N2C(=O)CS/C2=N\C(=O)Nc2ccc(-n3cnc(-c4ccc(OC(F)(F)F)cc4)n3)cc2F)c1 [Compound J693, (Z)-1-(2-Fluoro-4-(3-(4-(trifluoromethoxy)phenyl)-1H-1,2,4-triazol-1-yl)phenyl)-3-(3-(5-methyl-2-(3,3,3-trifluoropropoxy)phenyl)-4-oxothiazolidin-2-ylidene)urea] | 50 to 100 | 50 to 100 |  |  | 
